Data published in PubChem BioAssay AID1259407 (Chemical Carcinogenesis Research Information System (CCRIS), 2018).
Activity calls are given as the source filed them. No rule for the calls is given here.

System: CCRIS mutagenicity, Ames/micronucleus/aberration tests
Assay: CCRIS mutagenicity studies
[1] = Test System: AMES SALMONELLA TYPHIMURIUM, Strain/Indicator: TA98, Metabolic Activation: NONE, Method: PREINCUBATION
[2] = Test System: AMES SALMONELLA TYPHIMURIUM, Strain/Indicator: TA100, Metabolic Activation: NONE, Method: PREINCUBATION
[3] = Test System: AMES SALMONELLA TYPHIMURIUM, Strain/Indicator: TA1535, Metabolic Activation: NONE, Method: PREINCUBATION
[4] = Test System: AMES SALMONELLA TYPHIMURIUM, Strain/Indicator: TA1537, Metabolic Activation: NONE, Method: PREINCUBATION

In the case of Oc1cc(Cl)cc(Cl)c1, the mutagenic call (Test System: AMES SALMONELLA TYPHIMURIUM, Strain/Indicator: TA98, Metabolic Activation: HAMSTER, LIVER, S-9, AROCLOR 1254, Method: PREINCUBATION) is reported as “inactive; negative”, the mutagenic call [1] is reported as “inactive; negative” and the mutagenic call (Test System: AMES SALMONELLA TYPHIMURIUM, Strain/Indicator: TA98, Metabolic Activation: RAT, LIVER, S-9, AROCLOR 1254, Method: PREINCUBATION) is reported as “inactive; negative”. The mutagenic call (Test System: AMES SALMONELLA TYPHIMURIUM, Strain/Indicator: TA100, Metabolic Activation: HAMSTER, LIVER, S-9, AROCLOR 1254, Method: PREINCUBATION) was “inactive; negative”, the mutagenic call [2] was “inactive; negative” and the mutagenic call (Test System: AMES SALMONELLA TYPHIMURIUM, Strain/Indicator: TA100, Metabolic Activation: RAT, LIVER, S-9, AROCLOR 1254, Method: PREINCUBATION) was “inactive; negative”. For the same compound, the mutagenic call (Test System: AMES SALMONELLA TYPHIMURIUM, Strain/Indicator: TA1535, Metabolic Activation: HAMSTER, LIVER, S-9, AROCLOR 1254, Method: PREINCUBATION) was “inactive; negative”, the mutagenic call [3] was “inactive; negative” and the mutagenic call (Test System: AMES SALMONELLA TYPHIMURIUM, Strain/Indicator: TA1535, Metabolic Activation: RAT, LIVER, S-9, AROCLOR 1254, Method: PREINCUBATION) was “inactive; negative”. For the same compound, the mutagenic call (Test System: AMES SALMONELLA TYPHIMURIUM, Strain/Indicator: TA1537, Metabolic Activation: HAMSTER, LIVER, S-9, AROCLOR 1254, Method: PREINCUBATION) was “inactive; negative”, the mutagenic call [4] was “inactive; negative” and the mutagenic call (Test System: AMES SALMONELLA TYPHIMURIUM, Strain/Indicator: TA1537, Metabolic Activation: RAT, LIVER, S-9, AROCLOR 1254, Method: PREINCUBATION) was “inactive; negative”.

CC(Br)C(=O)O (stereo unspecified) was tested, and the mutagenic call (End Point: IN VITRO CHROMOSOMAL ABERRATIONS, Test System: CHL CELLS, Metabolic Activation: RAT, LIVER, S-9, SODIUM PHENOBARBITAL AND 5,6-BENZOFLAVONE) was “active; positive (structural changes)”, the mutagenic call [1] was “inactive; negative” and the mutagenic call (Test System: AMES SALMONELLA TYPHIMURIUM, Strain/Indicator: TA98, Metabolic Activation: RAT LIVER S-9, PHENOBARBITAL AND BETA-NAPHTHOFLAVONE, Method: PREINCUBATION) was “inactive; negative”. The mutagenic call [2] was “inactive; negative”, the mutagenic call (Test System: AMES SALMONELLA TYPHIMURIUM, Strain/Indicator: TA100, Metabolic Activation: RAT LIVER S-9, PHENOBARBITAL AND BETA-NAPHTHOFLAVONE, Method: PREINCUBATION) was “inactive; negative” and the mutagenic call [3] was “inactive; negative”. For the same compound, the mutagenic call (Test System: AMES SALMONELLA TYPHIMURIUM, Strain/Indicator: TA1535, Metabolic Activation: RAT LIVER S-9, PHENOBARBITAL AND BETA-NAPHTHOFLAVONE, Method: PREINCUBATION) was “active; positive”, the mutagenic call [4] was “inactive; negative” and the mutagenic call (Test System: AMES SALMONELLA TYPHIMURIUM, Strain/Indicator: TA1537, Metabolic Activation: RAT LIVER S-9, PHENOBARBITAL AND BETA-NAPHTHOFLAVONE, Method: PREINCUBATION) was “inactive; negative”. The mutagenic call (Test System: AMES SALMONELLA TYPHIMURIUM, Strain/Indicator: TA1538, Metabolic Activation: NONE, Method: PREINCUBATION) was “inactive; negative”, the mutagenic call (Test System: AMES SALMONELLA TYPHIMURIUM, Strain/Indicator: TA1538, Metabolic Activation: RAT LIVER S-9, PHENOBARBITAL AND BETA-NAPHTHOFLAVONE, Method: PREINCUBATION) was “inactive; negative” and the mutagenic call (Test System: E.COLI, Strain/Indicator: WP2UVRA, Metabolic Activation: NONE, Method: PREINCUBATION) was “inactive; negative”. The mutagenic call (Test System: E.COLI, Strain/Indicator: WP2UVRA, Metabolic Activation: RAT LIVER S-9, PHENOBARBITAL AND BETA-NAPHTHOFLAVONE, Method: PREINCUBATION) was “inactive; negative”.

For COC(=O)[C@H]1[C@H]2C[C@@H]3c4[nH]c5cc(OC)ccc5c4CCN3C[C@H]2C[C@@H](OC(=O)/C=C/c2cc(OC)c(OC)c(OC)c2)[C@@H]1OC, the mutagenic call (Test System: AMES SALMONELLA TYPHIMURIUM, Strain/Indicator: TA97, Metabolic Activation: HAMSTER, LIVER, S-9, AROCLOR 1254 (10 OR 30%), Method: PREINCUBATION) was “inactive; negative”, the mutagenic call (Test System: AMES SALMONELLA TYPHIMURIUM, Strain/Indicator: TA97, Metabolic Activation: NONE, Method: PREINCUBATION) was “inactive; negative” and the mutagenic call (Test System: AMES SALMONELLA TYPHIMURIUM, Strain/Indicator: TA97, Metabolic Activation: RAT, LIVER, S-9, AROCLOR 1254 (10 OR 30%), Method: PREINCUBATION) was “inactive; negative”. For the same compound, the mutagenic call (Test System: AMES SALMONELLA TYPHIMURIUM, Strain/Indicator: TA98, Metabolic Activation: HAMSTER, LIVER, S-9, AROCLOR 1254 (10 OR 30%), Method: PREINCUBATION) was “inactive; negative”, the mutagenic call [1] was “inactive; negative” and the mutagenic call (Test System: AMES SALMONELLA TYPHIMURIUM, Strain/Indicator: TA98, Metabolic Activation: RAT, LIVER, S-9, AROCLOR 1254 (10 OR 30%), Method: PREINCUBATION) was “inactive; negative”. The mutagenic call (Test System: AMES SALMONELLA TYPHIMURIUM, Strain/Indicator: TA100, Metabolic Activation: HAMSTER, LIVER, S-9, AROCLOR 1254 (10 OR 30%), Method: PREINCUBATION) was “inactive; negative”, the mutagenic call [2] was “inactive; negative” and the mutagenic call (Test System: AMES SALMONELLA TYPHIMURIUM, Strain/Indicator: TA100, Metabolic Activation: RAT, LIVER, S-9, AROCLOR 1254 (10 OR 30%), Method: PREINCUBATION) was “inactive; negative”. The mutagenic call (Test System: AMES SALMONELLA TYPHIMURIUM, Strain/Indicator: TA1535, Metabolic Activation: HAMSTER, LIVER, S-9, AROCLOR 1254 (10 OR 30%), Method: PREINCUBATION) was “inactive; negative”, the mutagenic call [3] was “inactive; negative” and the mutagenic call (Test System: AMES SALMONELLA TYPHIMURIUM, Strain/Indicator: TA1535, Metabolic Activation: RAT, LIVER, S-9, AROCLOR 1254 (10 OR 30%), Method: PREINCUBATION) was “inactive; negative”. For the same compound, the mutagenic call (Test System: AMES SALMONELLA TYPHIMURIUM, Strain/Indicator: TA1537, Metabolic Activation: HAMSTER, LIVER, S-9, AROCLOR 1254 (30%), Method: PREINCUBATION) was “inactive; negative”, the mutagenic call [4] was “inactive; negative” and the mutagenic call (Test System: AMES SALMONELLA TYPHIMURIUM, Strain/Indicator: TA1537, Metabolic Activation: RAT, LIVER, S-9, AROCLOR 1254 (30%), Method: PREINCUBATION) was “inactive; negative”.

For ClC1=C(Cl)C2(Cl)C3C(Cl)C(Cl)CC3C1(Cl)C2(Cl)Cl (stereo unspecified), the mutagenic call (Test System: AMES SALMONELLA TYPHIMURIUM, Strain/Indicator: TA98, Metabolic Activation: HAMSTER, LIVER, S-9, AROCLOR 1254 (5, 10 OR 30%), Method: PREINCUBATION) was “inactive; negative”, the mutagenic call [1] was “inactive; negative” and the mutagenic call (Test System: AMES SALMONELLA TYPHIMURIUM, Strain/Indicator: TA98, Metabolic Activation: RAT, LIVER, S-9, AROCLOR 1254 (5, 10 OR 30%), Method: PREINCUBATION) was “inactive; negative”. For the same compound, the mutagenic call (Test System: AMES SALMONELLA TYPHIMURIUM, Strain/Indicator: TA100, Metabolic Activation: HAMSTER, LIVER, S-9, AROCLOR 1254 (30%), Method: PREINCUBATION) was “active; positive”, the mutagenic call (Test System: AMES SALMONELLA TYPHIMURIUM, Strain/Indicator: TA100, Metabolic Activation: NONE, Method: DESICCATOR) was “active; positive” and the mutagenic call [2] was “inactive; negative”. For the same compound, the mutagenic call (Test System: AMES SALMONELLA TYPHIMURIUM, Strain/Indicator: TA100, Metabolic Activation: RAT, LIVER, S-9, AROCLOR 1254 (30%), Method: PREINCUBATION) was “active; positive” and the mutagenic call (Test System: CHINESE HAMSTER V-79, Strain/Indicator: V-79/OUABAIN, Metabolic Activation: NONE, Method: STANDARD PLATE) was “active; positive”.

In the case of O=S(=O)(O)N(O)S(=O)(=O)O, the mutagenic call (Test System: AMES SALMONELLA TYPHIMURIUM, Strain/Indicator: G46, Metabolic Activation: RAT, LIVER, S-9, AROCLOR 1254, Method: STANDARD PLATE) is reported as “active; positive” and the mutagenic call (Test System: AMES SALMONELLA TYPHIMURIUM, Strain/Indicator: TA100, Metabolic Activation: RAT, LIVER, S-9, AROCLOR 1254, Method: STANDARD PLATE) is reported as “active; positive”.

For N/C(=N\O)c1ccc([N+](=O)[O-])o1, the mutagenic call (Test System: AMES SALMONELLA TYPHIMURIUM, Strain/Indicator: TA100, Metabolic Activation: NONE, Method: STANDARD PLATE) was “active; positive”.
